Consider 12 compounds from patent US11111247B2, “Pyrazolopyrimidine compounds and uses thereof” (Incyte Corporation, priority 2018, dated 2021).

The structures appear in SMILES notation. Like-named read-outs stand apart in the source and are kept apart here.

Experiment [1] concerns the target ALK2 (aa 147-end) (Homo sapiens (Human), UniProt Q04771). Briefly: ALK2 HTRF Assay. The experiment is classed as biochemical. In general terms: Time-resolved FRET reads energy transfer from a long-lived donor to a nearby acceptor.
Experiment [2] concerns the target FGFR2 (Homo sapiens, UniProt P21802). Briefly: pFGFR2 Functional Cell HTRF Assay (KATOIII cells). The experiment is classed as cell-based. The procedure:
To measure phosphorylated Fibroblast Growth Factor Receptor 2 (FGFR2), KATOIII cells (Human Gastric Carcinoma) were purchased from ATCC and maintained in Iscove's with 20% FBS (Gibco/Life Technologies). For the pFGFR2 assay, KATOIII cells were plated overnight in 5% FBS and Iscove's medium at 5×10^4 cells/well into Corning 96-well flat-bottom tissue culture treated plates. The next morning, 50 μl of fresh media with 0.5% FBS was incubated in the presence or absence of a concentration range of test compounds also at 50 μl, for 1 hour at 37° C., 5% CO2. Cell were washed with PBS, and lysed with Cell Signaling Lysis Buffer with standard Protease inhibitors for 45 min at room temperature. 4 μl total of Cis Bio Anti […] together were added to the lysate and mixed well (following directions of the kit). 16 μl was then transferred to 384 well Greiner white plates and stored at 4° C. overnight in the dark. Plates were read on the Pherastar plate reader at 665 nm and 620 nm wavelengths. IC50 determination was performed by fitting the curve of inhibitor percent inhibition versus the log of the inhibitor concentration using the GraphPad Prism 5.0 software. […] NT=Not tested.

Experiment [3] concerns the target FGFR2 (P) (Homo sapiens (Human), UniProt P21802). Briefly: FGFR Enzymatic Assay, FGFR2 phosphorylated. Conditions: phosphorylated enzyme, ATP near or below Km.
Protocol: (§1) The inhibitor potency of the exemplified compounds was determined in an enzyme discontinuous assay that measures peptide phosphorylation using FRET measurements to detect product formation. Inhibitors were serially diluted in DMSO and a volume of 0.2 μL was transferred to the wells of a 384-well plate. For the isoforms of FGFR (−1, −2, −3 wild-type and mutant isoforms, −4) including phosphorylated (P) and un-phosphorylated (UP) proteins, a 5 μL/well volume of enzyme diluted in assay buffer (50 mM HEPES, 10 mM MgCl2, 1 mM EGTA, 0.01% Tween-20, 5 mM DTT, pH 7.5) was added to the plate and pre-incubated with inhibitor for 5 to 15 minutes at ambient temperature. Appropriate controls (enzyme blank and enzyme with no inhibitor) were included on the plate. The reaction was initiated by the addition of a 5 μL/well volume containing both biotinylated [sequence] […] The plate was allowed to equilibrate for −10 minutes at ambient temperature before scanning on a PheraStar plate reader (BMG Labtech) instrument.
(§2) Either GraphPad prism or XLfit was used to analyze the data. The IC50 values were derived by fitting the data to a four parameter logistic equation producing a sigmoidal dose-response curve with a variable Hill coefficient. Prism equation: Y=Bottom+(Top−Bottom)/(1+10^((LogIC50−X)*Hill slope)); XLfit equation: Y=(A+((B−A)/(1+((X/C)^D)))) where X is the logarithm of inhibitor concentration and Y is the response.
Experiment [4] deals with FGFR2 (UP) (Homo sapiens (Human), UniProt P21802). As to the kind of experiment: FGFR Enzymatic Assay, FGFR2 un-phosphorylated.
FGFR2 (UP), sequence (P21802 22-821): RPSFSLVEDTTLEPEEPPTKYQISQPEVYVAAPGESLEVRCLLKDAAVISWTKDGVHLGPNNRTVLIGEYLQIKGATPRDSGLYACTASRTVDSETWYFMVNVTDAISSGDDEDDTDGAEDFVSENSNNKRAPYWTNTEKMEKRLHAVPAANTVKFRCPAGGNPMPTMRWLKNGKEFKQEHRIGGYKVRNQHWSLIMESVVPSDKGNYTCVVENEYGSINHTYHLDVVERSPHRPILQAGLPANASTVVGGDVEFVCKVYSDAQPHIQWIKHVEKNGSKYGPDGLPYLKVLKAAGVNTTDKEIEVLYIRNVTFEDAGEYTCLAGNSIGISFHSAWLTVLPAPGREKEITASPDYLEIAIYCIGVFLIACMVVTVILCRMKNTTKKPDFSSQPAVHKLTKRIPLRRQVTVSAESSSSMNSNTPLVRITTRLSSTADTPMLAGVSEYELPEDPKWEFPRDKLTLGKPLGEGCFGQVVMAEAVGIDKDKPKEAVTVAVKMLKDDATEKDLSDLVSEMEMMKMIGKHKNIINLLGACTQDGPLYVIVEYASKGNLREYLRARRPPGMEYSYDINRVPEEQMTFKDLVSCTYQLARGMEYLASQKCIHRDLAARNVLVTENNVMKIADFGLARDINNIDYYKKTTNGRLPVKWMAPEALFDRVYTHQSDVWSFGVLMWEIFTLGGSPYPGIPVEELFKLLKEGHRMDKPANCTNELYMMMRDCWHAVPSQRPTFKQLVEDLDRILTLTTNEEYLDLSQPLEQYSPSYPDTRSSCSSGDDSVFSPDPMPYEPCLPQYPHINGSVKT
Protocol: as §1, §2
In experiment [5] the target is ALK2 (Homo sapiens (Human), UniProt Q04771). As to the kind of experiment: ALK2 Cellular Assay (phospho SMAD1 HTRF, BMP-7 stimulated HeLa cells). In kind it is cell-based. Conditions: HeLa cells, 200 ng/ml BMP-7, Phospho SMAD1 (S463/S465) HTRF; read-out: ALK2 Cellular Assay PSMAD. The essentials: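 HeLa cells pre-treated with compound (highest final 3 μM) for 60 min at 37° C, then stimulated with 200 ng/ml BMP-7 for 30 min. Phospho-SMAD1 (S463/S465) quantified by HTRF after overnight room-temperature incubation.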
ALK2, sequence (Q04771 21-509): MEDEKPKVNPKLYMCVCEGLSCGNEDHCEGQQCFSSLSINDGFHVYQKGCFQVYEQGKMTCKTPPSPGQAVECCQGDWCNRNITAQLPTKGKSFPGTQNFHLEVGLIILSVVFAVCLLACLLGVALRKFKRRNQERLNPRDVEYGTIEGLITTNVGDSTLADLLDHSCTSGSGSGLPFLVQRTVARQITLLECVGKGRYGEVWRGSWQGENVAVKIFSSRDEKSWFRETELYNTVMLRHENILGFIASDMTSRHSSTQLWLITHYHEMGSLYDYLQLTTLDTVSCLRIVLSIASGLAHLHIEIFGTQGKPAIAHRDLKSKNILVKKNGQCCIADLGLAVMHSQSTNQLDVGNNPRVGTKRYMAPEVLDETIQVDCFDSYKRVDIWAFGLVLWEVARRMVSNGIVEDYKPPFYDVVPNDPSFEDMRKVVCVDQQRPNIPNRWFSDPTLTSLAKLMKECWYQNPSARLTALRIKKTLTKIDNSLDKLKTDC

Experiment [6] deals with FGFR3 (UP) (Homo sapiens (Human), UniProt P22607). As to the kind of experiment: FGFR Enzymatic Assay, FGFR3 un-phosphorylated.
FGFR3 (UP), sequence (P22607 23-806): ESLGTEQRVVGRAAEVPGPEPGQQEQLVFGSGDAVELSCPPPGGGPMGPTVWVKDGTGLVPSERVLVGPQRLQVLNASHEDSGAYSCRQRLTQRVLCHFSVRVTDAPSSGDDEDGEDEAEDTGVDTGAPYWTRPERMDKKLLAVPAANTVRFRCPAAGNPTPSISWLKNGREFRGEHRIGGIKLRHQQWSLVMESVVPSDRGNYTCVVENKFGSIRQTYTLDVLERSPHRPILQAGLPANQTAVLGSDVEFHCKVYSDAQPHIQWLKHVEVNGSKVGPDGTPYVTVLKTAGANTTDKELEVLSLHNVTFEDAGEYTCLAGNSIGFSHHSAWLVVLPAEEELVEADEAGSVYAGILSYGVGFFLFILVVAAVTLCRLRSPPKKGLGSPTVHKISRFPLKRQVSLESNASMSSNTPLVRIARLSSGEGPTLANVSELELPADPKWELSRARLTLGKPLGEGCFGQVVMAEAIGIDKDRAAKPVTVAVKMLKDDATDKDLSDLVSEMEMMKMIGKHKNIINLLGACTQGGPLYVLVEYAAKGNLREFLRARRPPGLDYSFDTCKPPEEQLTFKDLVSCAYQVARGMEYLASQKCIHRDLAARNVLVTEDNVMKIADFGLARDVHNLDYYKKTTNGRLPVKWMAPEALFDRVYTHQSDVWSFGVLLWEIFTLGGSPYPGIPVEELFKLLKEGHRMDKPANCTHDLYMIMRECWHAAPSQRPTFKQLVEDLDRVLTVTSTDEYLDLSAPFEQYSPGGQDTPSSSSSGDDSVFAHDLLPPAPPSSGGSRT
Protocol: as §1, §2
Experiment [7] addresses FGFR1 (UP) (Homo sapiens (Human), UniProt P11362). As to the kind of experiment: FGFR Enzymatic Assay, FGFR1 un-phosphorylated.
For experiment [8], the target named is FGFR3 (Homo sapiens, UniProt P22607). Briefly: pFGFR3 Functional Cell HTRF Assay (BAF3-TEL-FGFR3 cells). In kind it is cell-based. The note with it: 2 hours. The method, then: To measure phosphorylated Fibroblast Growth Factor Receptor 1 and 3 (FGF1 and FGFR3), in house stable cell lines BAF3-TEL-FGFR1 or BAF3-TEL-FGFR3 were maintained in RPMI with 10% FBS and 1 μg/ml puromycin (Gibco/Life Technologies). […] The plates were gently shaken (100 rpm) for 2 minutes at room temperature to mix well and incubated for 2 hours in a single layer at 37° C., 5% CO2. 4 μl/well of 1/25 dilution of lysis buffer #3 (Cis Bio) was added with standard Protease inhibitors and shaken at 200 rpm at room temperature for 20 minutes. 4 μl total of the Cis Bio Tb-pFGFR Ab (10 ng) and d2-FGFR3 (1 ng) together were added to the lysate and mixed well. Plates were sealed and incubated at room temperature overnight in the dark. […] IC50 determination was performed by fitting the curve of inhibitor percent inhibition versus the log of the inhibitor concentration using the GraphPad Prism 5.0 software.
FGFR3, sequence (P22607 23-806 limits assumed): as the sequence (P22607 23-806) above

Experiment [9] concerns RT112 cells. Briefly: Luminescent Viability Assay (LVA, FGFR3). The experiment is classed as cell-based. The note with it: Homo sapiens, RT-112, 72 h, 3 days, CellTiter-Glo. The method, then: RT112 cells were purchased from ATCC (Manassas, Va.) and maintained in RPMI, 10% FBS (Gibco/Life Technologies). To measure the effect of test compounds on the viability of cells, the cells were plated with RPMI 10% FBS (5×10^3 cells/well/in 50 μL) into black 96-well Greiner polystyrene in the presence or absence of 50 μl of a concentration range of test compounds. After 3 days, 100 μl of CellTiter-Glo Reagent (Promega) was added. Luminescence was read with a TopCount (PerkinElmer). IC50 determination was performed by fitting the curve of percent inhibition versus the log of the inhibitor concentration using the GraphPad Prism 5.0 software.

The mark [10] stands for this setting: 1 hour, read-out: FGFR2 HTRF IC50.
Where [11] appears, read: read-out: FGFR2 (UP) IC50, un-phosphorylated enzyme, ATP near or below Km.
[12] abbreviates: read-out: ALK2 3 μM IC50, 3 uM ATP.
Setting [13] is: read-out: ALK2 100 μM IC50, 100 uM ATP.
Where [14] appears, read: read-out: FGFR1 (UP) IC50, un-phosphorylated enzyme, ATP near or below Km.
Setting [15] is: read-out: FGFR3 (UP) IC50, un-phosphorylated enzyme, ATP near or below Km.

ALK2 (aa 147-end), sequence (Q04771 147-509): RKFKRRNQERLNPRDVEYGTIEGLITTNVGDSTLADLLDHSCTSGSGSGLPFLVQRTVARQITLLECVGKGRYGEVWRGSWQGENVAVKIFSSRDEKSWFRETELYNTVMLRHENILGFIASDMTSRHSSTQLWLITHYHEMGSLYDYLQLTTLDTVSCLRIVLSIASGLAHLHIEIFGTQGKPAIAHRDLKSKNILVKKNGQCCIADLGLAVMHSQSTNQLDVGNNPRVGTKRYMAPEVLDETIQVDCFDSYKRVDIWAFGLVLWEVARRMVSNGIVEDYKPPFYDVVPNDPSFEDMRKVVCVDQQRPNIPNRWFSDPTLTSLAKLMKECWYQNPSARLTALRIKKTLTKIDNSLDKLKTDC
FGFR1 (UP), sequence (P11362 22-822): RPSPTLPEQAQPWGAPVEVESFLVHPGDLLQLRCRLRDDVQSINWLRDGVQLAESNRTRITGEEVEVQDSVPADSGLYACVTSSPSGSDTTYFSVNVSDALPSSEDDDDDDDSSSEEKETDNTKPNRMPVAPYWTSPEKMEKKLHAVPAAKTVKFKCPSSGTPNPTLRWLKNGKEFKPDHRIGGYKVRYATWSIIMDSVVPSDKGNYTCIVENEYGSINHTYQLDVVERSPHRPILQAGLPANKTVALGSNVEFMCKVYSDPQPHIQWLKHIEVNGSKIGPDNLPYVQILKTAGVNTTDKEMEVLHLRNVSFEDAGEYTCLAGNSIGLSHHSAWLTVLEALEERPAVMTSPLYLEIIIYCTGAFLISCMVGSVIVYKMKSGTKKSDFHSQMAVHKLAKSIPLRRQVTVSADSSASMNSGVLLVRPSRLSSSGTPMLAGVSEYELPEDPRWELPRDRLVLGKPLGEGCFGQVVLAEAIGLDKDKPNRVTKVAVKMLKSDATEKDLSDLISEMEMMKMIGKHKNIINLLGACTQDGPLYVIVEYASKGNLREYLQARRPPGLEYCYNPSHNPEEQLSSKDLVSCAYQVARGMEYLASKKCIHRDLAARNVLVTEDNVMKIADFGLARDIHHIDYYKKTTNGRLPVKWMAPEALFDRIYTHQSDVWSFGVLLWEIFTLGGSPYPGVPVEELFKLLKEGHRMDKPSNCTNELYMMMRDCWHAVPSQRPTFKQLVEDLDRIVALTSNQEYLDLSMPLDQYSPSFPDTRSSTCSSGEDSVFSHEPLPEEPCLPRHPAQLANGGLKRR
FGFR2, sequence (P21802 22-821 limits assumed): as the sequence (P21802 22-821) above
FGFR2 (P), sequence (P21802 22-821): as above

Regarding `CN1CC2CCC(C1=O)N2c1ncc2[nH]nc(-c3cnn(C4CCC4)c3)c2n1` (single isomer, unassigned) [Example 64, 8-(3-(1-Cyclobutyl-1H-pyrazol-4-yl)-1H-pyrazolo[4,3-d]pyrimidin-5-yl)-3-methyl-3,8-diazabicyclo[3.2.1]octan-2-one], the IC50 was 100 to 500 nM in experiment [1] (ALK2 3 μM IC50, 3 uM ATP); 500 to 2000 nM in experiment [1] (ALK2 100 μM IC50, 100 uM ATP); below 100 nM in experiment [2] (setting [10]); below 100 nM in [3] (read-out: FGFR2 (P) IC50); below 100 nM in experiment [4] (setting [11]).
For the compound `CN1CC2CCC(C1=O)N2c1ncc2[nH]nc(-c3cnn(C4CC4)c3)c2n1` (single isomer, unassigned) [Example 66, 8-(3-(1-Cyclopropyl-1H-pyrazol-4-yl)-1H-pyrazolo[4,3-d]pyrimidin-5-yl)-3-methyl-3,8-diazabicyclo[3.2.1]octan-2-one], the IC50 in experiment [2] (read-out: FGFR2 HTRF IC50, 1 hour) was below 100 nM.
As for `COC(=O)N1C[C@@H](C)N(c2ncc3[nH]nc(-c4ccc(N5CCO[C@H](C)C5)nc4)c3n2)[C@@H](C)C1` [Example 32, Methyl (3R,5S)-3,5-dimethyl-4-(3-(6-((R)-2-methylmorpholino)pyridin-3-yl)-1H-pyrazolo[4,3-d]pyrimidin-5-yl)piperazine-1-carboxylate], the IC50 was 100 to 500 nM in [1] (ALK2 1 mM IC50, 1 mM ATP); below 100 nM in [1] (setting [12]); below 100 nM in experiment [1] (setting [13]); 100 to 500 nM in [5]; 100 to 500 nM in experiment [6]; above 2000 nM in [7] (setting [14]). Further, the IC50 in experiment [4] fell in the range of 500 to 2000 nM.
Take `COC(=O)N1C[C@@H](C)N(c2ncc3[nH]nc(-c4ccc(N5CCN(C)[C@H](C)C5)nc4)c3n2)[C@@H](C)C1` [Example 33, Methyl (3R,5S)-4-(3-(6-((R)-3,4-dimethylpiperazin-1-yl)pyridin-3-yl)-1H-pyrazolo[4,3-d]pyrimidin-5-yl)-3,5-dimethylpiperazine-1-carboxylate]: the IC50 in experiment [1] (setting [12]) is below 100 nM; in experiment [1] (setting [13]) it was below 100 nM; in experiment [1] (read-out: ALK2 1 mM IC50, 1 mM ATP) it was below 100 nM; in [5] it was below 100 nM; in [6] (setting [15]), below 100 nM; in [7], 100 to 500 nM. In addition, the IC50 in experiment [4] lay in the range of 100 to 500 nM.
As to `CCn1cc(-c2n[nH]c3cnc(N4C5CCC4C(=O)N(C)C5)nc23)cn1` (stereo not shown) [Example 61, 8-(3-(1-Ethyl-1H-pyrazol-4-yl)-1H-pyrazolo[4,3-d]pyrimidin-5-yl)-3-methyl-3,8-diazabicyclo[3.2.1]octan-2-one], the IC50 is 500 to 2000 nM in experiment [1] (ALK2 3 μM IC50, 3 uM ATP); 500 to 2000 nM in experiment [1] (ALK2 100 μM IC50, 100 uM ATP); below 100 nM in experiment [8]; 100 to 500 nM in experiment [9]; below 100 nM in [3] (read-out: FGFR2 (P) IC50); below 100 nM in experiment [6] (setting [15]). In addition, in experiment [7], the IC50 is 100 to 500 nM.
As to `CC(C)n1cc(-c2n[nH]c3cnc(N4C5CCC4C(=O)N(C)C5)nc23)cn1` (stereo not shown) [Example 62, 8-(3-(1-Isopropyl-1H-pyrazol-4-yl)-1H-pyrazolo[4,3-d]pyrimidin-5-yl)-3-methyl-3,8-diazabicyclo[3.2.1]octan-2-one], the IC50 in [8] is 100 to 500 nM; in experiment [9], 100 to 500 nM; in [3] (read-out: FGFR2 (P) IC50), below 100 nM; in experiment [6] (setting [15]), below 100 nM; in experiment [7] it was 100 to 500 nM.
Consider `CN1CC2CCC(C1=O)N2c1ncc2[nH]nc(-c3cnn(CC(F)(F)F)c3)c2n1` (stereo not shown) [Example 67, 3-Methyl-8-(3-(1-(2,2,2-trifluoroethyl)-1H-pyrazol-4-yl)-1H-pyrazolo[4,3-d]pyrimidin-5-yl)-3,8-diazabicyclo[3.2.1]octan-2-one], for which the IC50 in experiment [8] was 100 to 500 nM; in experiment [3] (FGFR2 (P) IC50 (nM)), 100 to 500 nM; in experiment [6] (setting [15]), below 100 nM; in experiment [7], 100 to 500 nM.
Consider `Cc1cc(-n2cc(-c3n[nH]c4cnc(N5C6CCC5C(=O)N(C)C6)nc34)cn2)ccn1` (stereo not shown) [Example 71, 3-Methyl-8-(3-(1-(2-methylpyridin-4-yl)-1H-pyrazol-4-yl)-1H-pyrazolo[4,3-d]pyrimidin-5-yl)-3,8-diazabicyclo[3.2.1]octan-2-one], for which the IC50 in experiment [1] (ALK2 3 μM IC50, 3 uM ATP) is 500 to 2000 nM; in experiment [1] (ALK2 100 μM IC50, 100 uM ATP), 500 to 2000 nM; in experiment [2] (setting [10]), below 100 nM; in experiment [8] it was below 100 nM; in [9], below 100 nM; in [3] (read-out: FGFR2 (P) IC50) it was below 100 nM. Besides, the IC50 in experiment [6] (setting [15]) and in [7] (setting [14]) was below 100 nM in each case.
For `CN(C)C(=O)c1ccc(-n2cc(-c3n[nH]c4cnc(N5C6CCC5C(=O)N(C)C6)nc34)cn2)cc1` (stereo not shown) [Example 79, N,N-Dimethyl-4-(4-(5-(3-methyl-2-oxo-3,8-diazabicyclo[3.2.1]octan-8-yl)-1H-pyrazolo[4,3-d]pyrimidin-3-yl)-1H-pyrazol-1-yl)benzamide], the IC50 in [1] (ALK2 3 μM IC50, 3 uM ATP) was 100 to 500 nM; in [1] (ALK2 100 μM IC50, 100 uM ATP), 500 to 2000 nM; in experiment [8], below 100 nM; in [3] (read-out: FGFR2 (P) IC50), below 100 nM; in experiment [6] (setting [15]) it was below 100 nM; in [7] (setting [14]), below 100 nM. Besides, in [4] (setting [11]), the IC50 was below 100 nM.
As to `CNC(=O)c1ccc(-n2cc(-c3n[nH]c4cnc(N5C6CCC5C(=O)N(C)C6)nc34)cn2)cc1` (stereo not shown) [Example 80, N-Methyl-4-(4-(5-(3-methyl-2-oxo-3,8-diazabicyclo[3.2.1]octan-8-yl)-1H-pyrazolo[4,3-d]pyrimidin-3-yl)-1H-pyrazol-1-yl)benzamide], the IC50 in [9] was 500 to 2000 nM; in [3] (read-out: FGFR2 (P) IC50), below 100 nM; in [6] (setting [15]), below 100 nM; in experiment [7] (setting [14]), below 100 nM; in experiment [4] (setting [11]), below 100 nM.
Regarding `CNC(=O)c1ccc(-n2cc(-c3n[nH]c4cnc(N5C6CCC5C(=O)N(C)C6)nc34)cn2)cc1F` (stereo not shown) [Example 81, 2-Fluoro-N-methyl-4-(4-(5-(3-methyl-2-oxo-3,8-diazabicyclo[3.2.1]octan-8-yl)-1H-pyrazolo[4,3-d]pyrimidin-3-yl)-1H-pyrazol-1-yl)benzamide], the IC50 in experiment [1] (ALK2 3 μM IC50, 3 uM ATP) is 500 to 2000 nM; in experiment [1] (ALK2 100 μM IC50, 100 uM ATP), 500 to 2000 nM; in [2] (setting [10]), below 100 nM; in experiment [8] it was below 100 nM; in [9], below 100 nM; in [3] (read-out: FGFR2 (P) IC50), below 100 nM. Also, the IC50 in experiment [6] (setting [15]) and in experiment [7] (setting [14]) was below 100 nM in each case.
`CNC(=O)c1ccc(-n2cc(-c3n[nH]c4cnc(N5C6CCC5C(=O)N(C)C6)nc34)cn2)cn1` (stereo not shown) [Example 82, N-Methyl-5-(4-(5-(3-methyl-2-oxo-3,8-diazabicyclo[3.2.1]octan-8-yl)-1H-pyrazolo[4,3-d]pyrimidin-3-yl)-1H-pyrazol-1-yl)picolinamide]: the IC50 in [1] (ALK2 3 μM IC50, 3 uM ATP) was 500 to 2000 nM; in experiment [1] (ALK2 100 μM IC50, 100 uM ATP) it was 500 to 2000 nM; in experiment [8], 100 to 500 nM; in experiment [3] (read-out: FGFR2 (P) IC50), below 100 nM; in experiment [6] (setting [15]), below 100 nM; in experiment [7] (setting [14]), below 100 nM.
